Results as given in patent publication US10570152B2, “Antibacterial therapeutics and prophylactics” (VYOME BIOSCIENCES PVT. LTD., priority 2015, dated 2020).
≈ marks a conversion by molar mass, not a printed value. Where “and” joins values, the source holds several entries; their conditions need not be identical. Equal values may be shown once.

Legend:
[1] = system: S. epidermidis ATCC 35984 biofilm; assay: Biofilm disruption assay (MTT) with compounds and compound loaded beads; format: cell-based; settings: Staphylococcus epidermidis, ATCC35984, read-out: Concentration of compounds (mg/ml) for 50% biofilm disruption
Experimental: S. epidermidis ATCC 35984 was grown in Brain Heart Infusion Agar (BHIA) at 37° C. for 24 h. The loop full of bacterial culture was suspended in sterile water and matched the turbidity against 0.5 McFarland Standard (approximately 1.5×10^8), 100 μl of culture suspension was added into each well of the 96 well plate and plates were incubated at 37° C. for 48 h for biofilm formation. The biofilm formed in each well was washed twice with sterile water to remove the planktonic cells. Then biofilm was treated with 100 yl of BHI broth suspended with various concentrations of DART molecules, followed by incubation of the plates at 37° C. for 24 h. Subsequently the biofilm in the wells were stained with MTT reagent and the plates were incubated at 37° C. for 2 h. The precipitate formed in the wells was dissolved in 100 μl of dimethyl sulfoxide (DMSO) and the absorbance was measured at 600 nm in multi well plate reader to determine the minimum biofilm inhibitory concentration (MBIC). The MBIC was calculated by subtracting the absorbance value of each drug treated sample from that of 48 h growth control.

[2] = system: Gram negative pathogens; assay: MIC interpretations, Gram negative pathogens; format: cell-based; settings: most of the Gram negative pathogens
Experimental: MIC of DART molecules were determined by micro broth dilution as per CLSI guidelines. Bacterial strains were cultured in Brain Heart Infusion Agar (BHIA) at 37° C. for 24 h. For MIC determination, BHI broth (100 μl) was added to each of the wells of a 96 well plate. 100 μl of broth containing drug was added to the first well (1A to 1H) and thereafter serial (double) dilutions were carried out for up to 10 wells (column 1 to column 10 of the 96 well plate). Bacterial inoculum was prepared by adjusting the bacterial culture turbidity to 0.5 McFarland standard (approximately 1.5×10^8 cells/ml) and further diluted (100 times with sterile BHI broth). Diluted bacterial suspension (100 μl) was added to each well except sterility control wells (column 12 of 96 well plate). The plates were incubated at 37° C. for 24 h. The MIC of the test compound was measured after addition of Alamar blue dye.

[3] = system: K. pneumonia ATCC 13883; assay: MIC by micro broth dilution; format: cell-based; settings: Klebsiella pneumoniae, ATCC13883; K. pneumonia ATCC 13883; read-out: Minimum inhibitory concentration (MIC)
Method in brief: (§1)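 CLSI broth microdilution in BHI broth, twofold serial dilutions; inoculum from 0.5 McFarland culture diluted 100-fold. Incubated 37° C for 24 h; MIC read after Alamar blue addition.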

[4] = system: S. aureus ATCC 43300; assay: MIC by micro broth dilution; format: cell-based; settings: Staphylococcus aureus, ATCC43300; S. aureus ATCC 43300; read-out: Minimum inhibitory concentration (MIC)
Method in brief: as §1

[5] = system: S. epidermidis S12-1; assay: MIC by micro broth dilution; format: cell-based; settings: Staphylococcus epidermidis, S121, read-out: Minimum inhibitory concentration (MIC)
Method in brief: as §1

[6] = system: A. baumannii ATCC 1906; assay: MIC by micro broth dilution; format: cell-based; settings: Acinetobacter baumannii, ATCC1906, read-out: Minimum inhibitory concentration (MIC)
Method in brief: as §1

[7] = system: S. epidermidis ATCC 35984; assay: MIC by micro broth dilution; format: cell-based; settings: Staphylococcus epidermidis, ATCC35984, read-out: Minimum inhibitory concentration (MIC)
Method in brief: as §1

[8] = system: P. aeruginosa ATCC 27853; assay: MIC by micro broth dilution; format: cell-based; settings: Pseudomonas aeruginosa, ATCC27853, read-out: Minimum inhibitory concentration (MIC)
Method in brief: as §1

[9] = system: E. aerogenes NCIM 5139; assay: MIC by micro broth dilution; format: cell-based; settings: Klebsiella aerogenes, NCIM5139, read-out: Minimum inhibitory concentration (MIC)
Method in brief: as §1

[10] = system: E. coli BAA 196; assay: MIC by micro broth dilution; format: cell-based; settings: Escherichia coli, BAA196, read-out: Minimum inhibitory concentration (MIC)
Method in brief: as §1

[11] = system: E. coli MTCC 1687; assay: MIC by micro broth dilution; format: cell-based; settings: Escherichia coli, MTCC1687, read-out: Minimum inhibitory concentration (MIC)
Method in brief: as §1

[12] = system: E. aerogenes M2-1; assay: MIC by micro broth dilution; format: cell-based; settings: Klebsiella aerogenes, M21, read-out: Minimum inhibitory concentration (MIC)
Method in brief: as §1

[13] = system: E. faecium NCIM 5421; assay: MIC by micro broth dilution; format: cell-based; settings: Enterococcus faecium, NCIM5421, read-out: Minimum inhibitory concentration (MIC)
Method in brief: as §1

[14] = system: S. aureus CCARM 3505; assay: MIC by micro broth dilution; format: cell-based; settings: Staphylococcus aureus, CCARM3505, read-out: Minimum inhibitory concentration (MIC)
Method in brief: as §1

[15] = system: S. aureus MTCC 6908; assay: MIC by micro broth dilution; format: cell-based; settings: Staphylococcus aureus, MTCC6908, read-out: Minimum inhibitory concentration (MIC)
Method in brief: as §1

[16] = system: P. acnes CCARM 9010 induced paw inflammation; assay: Anti-inflammatory action in vivo, rat paw edema model; set-up: species or system Sprague Dawley rats; settings: topical, 24 h post initiation of treatment (32 h post induction)
Description: Host inflammation is one of the crucial clinical feature of most of the indications associated with bacterial infections. The inventors used an exemplary compound of the invention (Compound 2) to test the anti-inflammatory effects in vivo using rat paw edema model. Inflammation was induced using one of the opportunistic pathogens Propionibacterium acnes prevalent in implant associated infections. Sprague Dawley rats were used for the study and infection was induced by P. acnes CCARM 9010. An inoculum of 1×10^9 CFU/ml of the heat killed bacteria was injected to the plantar side of the right hind paw (˜2×10^7 CFU/paw) except in sham control where saline was injected. Treatments were initiated 8 h post injection by applying the test formulation of Compound 2 (30 mg) twice daily to the plantar surface of the right hind paw and gently rubbing 50 times with the index finger. Comparators Acnedap (dapsone 5% gel) and adapalene gel (Adaferin®) were applied twice daily and once daily based on clinical prescription dosage. Paw sizes were measured in millimeters using Vernier calipers at the start of the infection, 8 h post infection, and 24 h post initiation of treatment (32 h post induction of inflammation). The change in paw size, due to inflammation, was evaluated as the difference between the paw size measured at each time point and the basal paw size measured immediately before edema induction.

Question: For `Cc1ncc([N+](=O)[O-])n1CCN1CCN(c2cc3c(cc2F)c(=O)c(C(=O)O)c2n3C(C)S2)CC1` (stereo not shown) [Compound 2, 6-Fluoro-1-methyl-7-(4-(2-(2-methyl-5-nitro-1H-imidazol-1-yl)ethyl)piperazin-1-yl)-4-oxo-1H,4H-[1,3]thiazeto[3,2-a]quinoline-3-carboxylic acid], which EC50 [1] is on record?
Answer: The EC50 was 0.5 to 1 mg/mL (≈ 995 to 1990 µM).

Question: What about the “activity (MIC) range” value [2] of the same compound?
Answer: Its value is 4 to 8 mg/L.

Question: And the MIC [3]?
Answer: The MIC was 4 mg/L (≈ 7.96 µM).

Question: What about the MIC [4] of the same compound?
Answer: Its MIC is 0.13 mg/L (≈ 0.259 µM).

Question: And the MIC [5]?
Answer: Its MIC is 8 mg/L (≈ 15.9 µM).

Question: What about the MIC [6] of the same compound?
Answer: Its MIC is 8 mg/L (≈ 15.9 µM).

Question: What about the MIC [7] of the same compound?
Answer: The MIC was 0.03 mg/L (≈ 0.0597 µM).

Question: What about the MIC [8] of the same compound?
Answer: Its MIC is 8 mg/L (≈ 15.9 µM).

Question: And the MIC [9]?
Answer: Its MIC is 4 mg/L (≈ 7.96 µM).

Question: What about the MIC [10] of the same compound?
Answer: The MIC was 8 mg/L (≈ 15.9 µM).

Question: And the MIC [11]?
Answer: The MIC was 1 mg/L (≈ 1.99 µM).

Question: What about the MIC [12] of the same compound?
Answer: The MIC was 8 mg/L (≈ 15.9 µM).

Question: What about the MIC [13] of the same compound?
Answer: Its MIC is 0.25 mg/L (≈ 0.497 µM).

Question: What about the MIC [14] of the same compound?
Answer: Its MIC is 16 mg/L (≈ 31.8 µM).

Question: What about the MIC [15] of the same compound?
Answer: Its MIC is 0.53 mg/L (≈ 1.05 µM).

Question: What about the “Inhibition of inflammation (%) at 24 h post treatment” value [16] of the same compound?
Answer: Its value is 43% and 43.20%.
